From patent publication US5541187A, “6-heterocycyclyl pyrazolo[3,4-d]pyrimidin-4-ones and compositions and method of use thereof” (Sterling Winthrop Inc., priority 1993, dated 1996)
“And” between values parts separate entries of the source, which are not always exact repeats. Equal entries are not always repeated.

Test system: cGMP-PDE I
Assay: cGMP-PDE I inhibitory activity (cyclic nucleotide hydrolysis, isolated PDE isozyme)
Format: biochemical, various animal species and man
Conditions: for IC50: values marked * are from two separate experimental runs
Method: Multiple isozymic forms of cyclic nucleotide phosphodiesterase (PDE) have been identified in mammalian cells. […] Elevation of intracellular cGMP in vascular smooth muscle triggers a cascade of events that leads to a reduction in muscle tone while elevations in renal tubule cell cGMP stimulates natriuresis and diuresis. Vascular smooth muscle and renal cells contain a phosphodiesterase isozyme that has a low Km (1 μM) for the hydrolysis of cGMP. This isozyme has been referred to as the cGMP-PDE or cGMP-PDE I since it elutes from an anion-exchange sepharose resin in the first peak of PDE activity at a sodium acetate concentration between 150-200 mM. Thus inhibition of the cGMP-PDE isozyme is a viable subcellular mechanism by which increases in cGMP can produce a reduction in total peripheral resistance and a stimulation of natriuresis and diuresis. The development of cGMP-PDE inhibitors represents an approach for the discovery of agents useful for treating heart failure and hypertension. For example, compounds having high inhibitory potency for the cGMP-PDE are expected to lower blood pressure and induce natriuresis and diuresis.
The cGMP-PDE and other PDE isozymes were isolated from cardiovascular tissues (heart and aorta) of various animal species and man by anion-exchange and affinity chromatography as described by Silver et al., Sec. Messeng. Phos. 13:13-25, 1991; PDE activity, in the presence and absence of test compounds was determined essentially as described by Thompson et al., Adv. Cyclic Nucleotide Res. 10:69-92. To determine the potency and selectivity of compounds as PDE inhibitors, compounds are screened for their effect on cyclic nucleotide hydrolysis at 10 μM. If ≥50% inhibition of PDE activity is observed, an IC50 value (concentration of compound causing 50% reduction in PDE activity) and corresponding 95% confidence intervals are generated. The IC50 values are calculated from concentration-response curves as described by Tallarida and Murray, Manual of Pharmacologic Calculations with Computer Programs, Procedure 8, Graded Dose-response, pp. 14-19, Springer-Verlag, N.Y., 1981.

| SMILES | Percent Inhibition cGMP-PDE I (1 μM) [%] | Percent Inhibition cGMP-PDE I (10 μM) [%] | IC50 | other results |
| --- | --- | --- | --- | --- |
| CCN(CC)CCCn1nc(C)c2c(=O)[nH]c(-c3ccncc3)nc21 [Example 99, 1-(3-Diethylaminopropyl)-3-methyl-6-(4-pyridyl)pyrazolo[3,4-d]pyrimidin-4-one. 1/2 hydrate] | 0 | 12 |  |  |
| Cc1[nH]n(C2CCCC2)c2nc(-c3cccc4cccnc34)nc(=O)c1-2 [Example 12c, 1-Cyclopentyl-3-methyl-6-(8-quinolinyl)-pyrazolo-[3,4-d]pyrimidin-4-one] |  |  | 690 nM |  |
| Cc1[nH]n(C2CCCC2C)c2nc(-c3ccncc3)nc(=O)c1-2 (stereo not shown) [Example 1e, 1-(2-Methylcyclopentyl)-3-methyl-6-(4-pyridyl)pyrazolo [3,4-d]pyrimidin-4-one] | 59 |  |  | Percent Inhibition cGMP-PDE I (0.1 μM): 23% |
| CCc1[nH]n(C2CCCC2)c2nc(C3CCNC4CCCCC43)nc(=O)c1-2 (stereo not shown) [Example 8, 1-Cyclopentyl-3-ethyl-6-(perhydro-4-quinolinyl)-pyrazolo[3,4-d]pyrimidin-4-one] | 31 | 67 |  |  |
| CCc1[nH]n(C2CCCC2)c2nc(-c3ccnc(-n4ccnc4)c3)nc(=O)c1-2 [Example 121c, 1-Cyclopentyl-3-ethyl-6-[2-(1-imidazolyl)-4-pyridyl]pyrazolo[3,4-d]pyrimidin-4-one] | 68 |  | 240 nM | Percent Inhibition cGMP-PDE I (0.1 μM): 11% |
| O=c1[nH]c(-c2ccncc2)nc2c1c(C(F)(F)F)nn2C1CCCC1 [Example 96] |  |  | 670 nM |  |
| O=c1nc(-c2ccncc2)nc2n(C3CCCC3)[nH]c(Cc3ccccc3)c1-2 [Example 15e, 1-Cyclopentyl-3-phenylmethyl-6-(4-pyridyl)-pyrazolo[3,4-d]pyrimidin-4-one] | 38 | 43 |  |  |
| Cc1[nH]n(C)c2nc(-c3ccncc3)nc(=O)c1-2 [Example 103, 1,3-Dimethyl-6-(4-pyridyl)-pyrazolo-[3,4-d]pyrimidin-4-one] | 0 | 19 |  |  |
| Cc1[nH]n(C2CCC2)c2nc(-c3ccncc3)nc(=O)c1-2 [Example 102, 1-Cyclobutyl-3-methyl-6-(4-pyridyl)-pyrazolo-[3,4-d]pyrimidin-4-one] |  |  | 1900 nM |  |
| CCc1[nH]n(C2CCCC2)c2nc(-c3cccnc3)nc(=O)c1-2 [Example 137, 1-Cyclopentyl-3-ethyl-6-(3-pyridyl)pyrazolo[3,4-d]pyrimidin-4-one] | 64 |  |  | Percent Inhibition cGMP-PDE I (0.1 μM): 27% |
| CCCOc1cnccc1-c1nc2n(C3CCCC3)[nH]c(CC)c-2c(=O)n1 [Example 133c, 1-Cyclopentyl-3-ethyl-6-(3-propoxy-4-pyridyl)pyrazolo[3,4-d]pyrimidin-4-one] |  |  |  | Percent Inhibition cGMP-PDE I (0.01 μM): 82% |
| Cc1[nH]n(C2CCCC2)c2nc(-c3cc[nH]c(=O)c3)nc(=O)c1-2 [Example 126b, 1-Cyclopentyl-3-methyl-6-(2-oxo-4-pyridyl)pyrazolo[3,4-d]pyrimidin-4-one] | 32 |  |  | Percent Inhibition cGMP-PDE I (0.1 μM): 0% |
| O=c1[nH]c(-c2ccncc2)nc2c1c(Cl)nn2C1CCCC1 [Example 72] |  |  | 1150 nM |  |
| CCc1[nH]n(C2CCCC2)c2nc(-c3ccc4nccn4c3)nc(=O)c1-2 [Example 16c, 1-Cyclopentyl-3-ethyl-6-(6-imidazo[1,2-a]pyridinyl)pyrazolo[3,4-d]pyrimidin-4-one] | 69 |  | 780 nM | Percent Inhibition cGMP-PDE I (0.1 μM): 35% |
| Cc1nn(CCCCCC(=O)O)c2nc(-c3ccncc3)[nH]c(=O)c12 [Example 80] |  |  | 2700 nM |  |
| Cc1nn(CC2CCCC2)c2nc(-c3ccncc3)[nH]c(=O)c12 [Example 89] | 17 | 77 |  |  |
| CCc1[nH]n(C2CCCC2)c2nc(-c3ccncc3OCCOC)nc(=O)c1-2 [Example 131b, 1-Cyclopentyl-3-ethyl-6-(3-(2-methoxyethoxy)-4-pyridyl)pyrazolo[3,4-d]pyrimidin-4-one] | 86 |  |  | Percent Inhibition cGMP-PDE I (0.01 μM): 22%; Percent Inhibition cGMP-PDE I (0.1 μM): 61% |
| Cc1nn(C2CCCCC2)c2nc(-c3ccncc3)[nH]c(=O)c12 [Example 3e, 1-Cyclohexyl-3-methyl-6-(4-pyridyl)-pyrazolo[3,4-d]pyimidin-4-one] |  |  | 460 nM and 560 nM |  |
| Cc1ccccc1Cn1nc(C)c2c(=O)[nH]c(-c3ccncc3)nc21 [Example 87] |  |  | 2700 nM and 3600 nM |  |
| CCc1nn(C(C)(C)C)c2nc(-c3ccncc3)[nH]c(=O)c12 [Example 94] |  |  | 480 nM |  |

| SMILES | Percent Inhibition cGMP-PDE I (1 μM) [%] | Percent Inhibition cGMP-PDE I (10 μM) [%] | IC50 | other results |
| --- | --- | --- | --- | --- |
| Cc1nn(CCCCCCCC(=O)O)c2nc(-c3ccncc3)[nH]c(=O)c12 [Example 84] |  |  | 610 nM |  |
| CCc1[nH]n(C2CCCC2)c2nc(-c3ccnc4ccccc34)nc(=O)c1-2 [Example 7c, 1-Cyclopentyl-3-ethyl-6-(4-quinolinyl)-pyrazolo[3,4-d]pyrimidin-4-one] |  |  | 190 nM |  |
| CCc1nn(C2CCCC2)c2nc(-c3cccn4ccnc34)[nH]c(=O)c12 [Example 114c, 1-cyclopentyl-3-ethyl-6-(8-imidazo[1,2-a]pyridine)pyrazolo[3,4-d]pyrimidin-4-one methanesulfonate] | 5 | 52 |  |  |
| CC(C)(C)n1[nH]c(CC2CCCCC2)c2c(=O)nc(-c3ccncc3)nc1-2 [Example 5e, 1-tert-Butyl-3-(cyclohexylmethyl)-6-(4-pyridyl)-pyrazolo[3,4-d]pyrimidin-4-one] |  |  | 260 nM |  |
| CCCCCCCCn1nc(C)c2c(=O)[nH]c(-c3ccncc3)nc21 [Example 88] | 32 |  |  |  |
| Cc1nn(Cc2ccccc2)c2nc(-c3ccncc3)[nH]c(=O)c12 [Example 77] | 13 | 80 |  |  |
| Cc1nn(C2CCOC2)c2nc(-c3ccncc3)[nH]c(=O)c12 (stereo not shown) [Example 101, 1-(3-Tetrahydrofuranyl)-3-methyl-6-(4-pyridyl)-pyrazolo-[3,4-d]pyrimidin-4-one-1/4 hydrate] |  |  | 1780 nM |  |
| O=c1[nH]c(-c2ccncc2)nc2c1cnn2C1CCCC1 [Example 71] |  |  | 3700 nM |  |
| Cc1[nH]n(Cc2cc(NS(=O)(=O)c3cccc4cccnc34)ccc2Cl)c2nc(-c3ccncc3)nc(=O)c1-2 [Example 108, 1-[2-Chloro-5-((8-quinolinylsulfonyl)amino)phenylmethyl]-3-methyl-6-(4-pyridyl)-pyrazolo[3,4-d]pyrimidin-4-one] | 38 | 86 |  |  |
| Cc1nn(C2CCS(=O)(=O)C2)c2nc(-c3ccncc3)[nH]c(=O)c12 (stereo not shown) [Example 18c, 1-(3-Tetrahydrothienyl-1,1-dioxide)-3-methyl-6-(4-pyridyl)pyrazolo[3,4-d]pyrimidin-4-one methanesulfonate] | 0 | 45 |  |  |
| Cc1nn(Cc2ccc(C#N)cc2)c2nc(-c3ccncc3)[nH]c(=O)c12 [Example 85] |  | 42 |  |  |
| CCc1[nH]n(C(C)(C)C)c2nc(-c3ccncc3OC)nc(=O)c1-2 [Example 136, 1-tert-Butyl-3-ethyl-6-(3-methoxy-4-pyridyl)pyrazolo[3,4-d]pyrimidin-4-one] | 73 |  |  | Percent Inhibition cGMP-PDE I (0.01 μM): 28%; Percent Inhibition cGMP-PDE I (0.1 μM): 39% |
| Cc1[nH]n(Cc2ccc(C(=O)O)cc2)c2nc(-c3ccncc3)nc(=O)c1-2 [Example 111, 1-(4-Carboxylphenylmethyl)-3-methyl-6-(4-pyridyl)-pyrazolo[3,4-d]pyrimidin-4-one] | 0 | 24 |  |  |
| CCc1[nH]n(C2CCCC2)c2nc(-c3cc(C)nc(Cl)c3)nc(=O)c1-2 [Example 117, 1-Cyclopentyl-3-ethyl-6-(2-chloro-6-methyl-4-pyridyl)pyrazolo[3,4-d]pyrimidin-4-one] | 11 | 22 |  |  |
| Cc1nn(CCCCCCCCC(=O)O)c2nc(-c3ccncc3)[nH]c(=O)c12 [Example 78] | 54 |  |  |  |
| Cc1n[nH]c2nc(-c3ccncc3)[nH]c(=O)c12 [Example 76] | 0 | 24 |  |  |
| CCc1[nH]n(C2CCCC2)c2nc(-c3cccc(C)n3)nc(=O)c1-2 [Example 2f, 1-cyclopentyl-3-ethyl-6-(6-methyl-2-pyridyl) -pyrazolo-[3,4-d]pyrimidin-4-one] | 7 | 53 |  |  |
| Cc1[nH]n(C2CCCO2)c2nc(-c3ccncc3)nc(=O)c1-2 (stereo not shown) [Example 104, 1-(2-tetrahydrofuranyl)-3-methyl-6-(4-pyridyl)-pyrazolo-[3,4-d]pyrimidin-4-one] |  |  | 12400 nM |  |
| CSc1[nH]n(C2CCCC2)c2nc(-c3ccncc3)nc(=O)c1-2 [Example 19c, 1-Cyclopentyl-3-methylthio-6-(4-pyridyl)pyrazolo[3,4-d]pyrimidin-4-one] | 32 | 74 |  |  |
